Measured values taken from US20260176260A1, “DUAL RAF AND TUBULIN INHIBITORS AND METHODS OF USE THEREOF” (Deciphera Pharmaceuticals, LLC, priority 2023, published 2026).

Experiments:
HCT-116 cells = test: HCT-116 cell proliferation assay (resazurin); format: cell-based; details: Homo sapiens; Table 2, inhibition of cell proliferation; read-out: HCT-116
Procedure: HCT-116 cells (catalog #CCL-247) are obtained from the American Type Culture Collect (ATCC, Manassas, VA). Briefly, cells are grown in McCoy's 5A supplemented with 10% characterized fetal bovine serum (Invitrogen, Carlsbad, CA) and 1% Penicillin/Streptomycin/L-Glutamine at 37° C., 5% CO2, and 95% humidity. Cells are expanded until reaching 70-95% confluency at which point they are sub-cultured or harvested for assay use. A serial dilution of test compound is dispensed into a 384-well black clear bottom plate in triplicate. 375 cells are added per well in 50 μL complete growth medium in the 384-well plate. Plates are incubated for 67 to 72 h at 37° C., 5% CO2, and 95% humidity. At the end of the incubation, 40 μL of a […] solution of resazurin (Sigma, St. Louis, MO) in PBS is added to each well of the plate and plates are incubated for an additional 4 to 5 h at 37° C., 5% CO2, and 95% humidity. Plates are read on a Synergy2 or equivalent reader (Biotek, Winooski, VT) using an excitation of 540 nm and an emission of 600 nm. Data is analyzed using Prism software (Graphpad, San Diego, CA) to calculate IC50 values.

B-Raf kinase = target: T1, B-Raf kinase (Homo sapiens, UniProt P15056); test: Biochemical assay for B-Raf (coupled pyruvate kinase/lactate dehydrogenase); details: Table 1, inhibition of biochemical activity; read-out: BRAF
T1 construct: purchased Sigma

C-Raf kinase = target: T2, C-Raf kinase (Homo sapiens, UniProt P04049, Y340D/Y341D); test: Biochemical assay for C-Raf (coupled pyruvate kinase/lactate dehydrogenase); details: Table 1, inhibition of biochemical activity; read-out: CRAF
T2 construct: C-Raf residues 306-end; Y340D, Y341D with N-; purchased Sigma

MiaPaca-2 cells = test: MiaPaca-2 cell proliferation assay (resazurin); format: cell-based; details: Homo sapiens, MIA PaCa-2; Table 2, inhibition of cell proliferation; read-out: MiaPaca-2
Procedure: MiaPaca-2 cells (catalog #CRL-1420) are obtained from the American Type Culture Collect (ATTC, Manassas, VA). Briefly, cells were grown in DMVEM supplemented with […] fetal bovine serum (Invitrogen, Carlsbad, CA), 2.5% New Zealand sourced horse serum and 1% Penicillin/Streptomycin/L-Glutamine at 37° C., […], and […]. Cells are expanded until reaching […] at which point they are sub-cultured or harvested for assay use. For assays completed in 96-well plates, a serial dilution of test compound is dispensed into a 96-well black clear bottom plate in triplicate. Three thousand cells are added per well in 200 μL complete growth medium in the 96-well plate. Plates are incubated for 67 to 72 h at 37° C., 5% CO2, and 95% humidity. At the end of the incubation, 40 μL of a […] solution of resazurin (Sigma, St. Louis, MO) in PBS is added to each well of the plate and plates are incubated for an additional 5 to 6 h at 37° C., 5% CO2, and 95% humidity. For 384-well assays, a threefold, 8-point serial dilution of compound was spotted column wise into a 384 well black, clear bottom, tissue culture treated plate using the Beckman Coulter Echo 650. Likewise, a threefold, 8-point serial dilution of cobimetinib was spotted row wise into the 384 well black, clear bottom plate containing compound. DMSO concentration was constant across all wells at 0.4%. Seven hundred fifty cells are added per well in 50 μL complete growth medium in each 384-well plate. Plates are incubated for 67 to 72 h at 37° C., 5% CO2, and 95% humidity. At the end of the incubation, 10 μL of a 440 μM solution of resazurin (Sigma, St. Louis, MO) in PBS is added to each well of the plate and plates are incubated for an additional 4 to 6 h at 37° C., 5% CO2, and 95% humidity. Plates are read on a Synergy2 or equivalent reader (Biotek, Winooski VT) using an excitation of 540 nm and an emission of 600 nm. Data is analyzed using Prism software (Graphpad, San Diego, CA) to calculate IC50 values.

HPAF-II cells = test: HPAF-II cell proliferation assay (resazurin); format: cell-based; details: Homo sapiens; Table 2, inhibition of cell proliferation; read-out: HPAF-II
Procedure: (§1) HPAF-II cells (catalog #CRL-1997) are obtained from the American Type Culture Collect (ATCC, Manassas, VA). Briefly, cells are grown in Minimum Essential Media supplemented with 10% characterized fetal bovine serum (Invitrogen, Carlsbad, CA) and 1% Penicillin/Streptomycin/L-Glutamine at 37° C., 5% CO2, and 95% humidity. Cells are expanded until reaching 70-95% confluency at which point they are sub-cultured or harvested for assay use. A serial dilution of test compound is dispensed into a 384-well black clear bottom plate in triplicate. 750 cells are added per well in 50 μL complete growth medium in the 384-well plate. Plates are incubated for 115 to 120 h at 37° C., 5% CO2, and 95% humidity. At the end of the incubation, 40 μL of a […] solution of resazurin (Sigma, St. Louis, MO) in PBS is added to each well of the plate and plates are incubated for an additional 18 to 24 h at 37° C., 5% CO2, and 95% humidity. Plates are read on a Synergy2 or equivalent reader (Biotek, Winooski, VT) using an excitation of 540 nm and an emission of 600 nm. Data is analyzed using Prism software (Graphpad, San Diego, CA) to calculate IC50 values.

Pa16c cells = test: Pa16c cell proliferation assay (resazurin); format: cell-based; details: Table 2, inhibition of cell proliferation
Procedure: as §1, with “Pa16c” for “HPAF-II”, “cells” for “cells (catalog #CRL-1997)”, “Dr. Channing Der, University of North Carolina at Chapel Hill.” for “the American Type Culture Collect (ATCC, Manassas, VA).”, “Dulbecco's Modified Eagle Medium” for “Minimum Essential Media”, “67” for “115”, “72” for “120”

T1 sequence (P15056 416-766): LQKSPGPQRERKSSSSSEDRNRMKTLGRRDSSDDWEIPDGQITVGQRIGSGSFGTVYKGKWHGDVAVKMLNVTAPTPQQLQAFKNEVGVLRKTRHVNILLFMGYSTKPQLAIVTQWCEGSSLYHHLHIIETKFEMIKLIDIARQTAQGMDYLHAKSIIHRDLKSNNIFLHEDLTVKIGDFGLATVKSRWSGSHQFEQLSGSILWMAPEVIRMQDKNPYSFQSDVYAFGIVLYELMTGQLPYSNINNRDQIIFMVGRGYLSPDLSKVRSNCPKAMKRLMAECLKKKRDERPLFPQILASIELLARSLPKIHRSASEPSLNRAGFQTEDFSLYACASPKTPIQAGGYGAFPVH
T2 sequence (P04049 307-648 Y340D/Y341D): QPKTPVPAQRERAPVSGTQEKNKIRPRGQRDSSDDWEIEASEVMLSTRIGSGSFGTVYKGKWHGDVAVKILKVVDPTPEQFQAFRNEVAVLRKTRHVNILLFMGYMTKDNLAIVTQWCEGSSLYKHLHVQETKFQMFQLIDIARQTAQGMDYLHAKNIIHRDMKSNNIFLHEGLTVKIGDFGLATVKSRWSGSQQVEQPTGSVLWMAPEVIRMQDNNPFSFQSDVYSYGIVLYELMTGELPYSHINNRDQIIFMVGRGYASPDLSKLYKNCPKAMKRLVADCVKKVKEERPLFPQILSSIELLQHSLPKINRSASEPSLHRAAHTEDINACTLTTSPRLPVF

| Compound | IC50 (HCT-116 cells) [nM] | IC50 (B-Raf kinase) [nM] | IC50 (C-Raf kinase) [nM] | IC50 (MiaPaca-2 cells) [nM] | IC50 (HPAF-II cells) [nM] | IC50 (Pa16c cells) [nM] |
| --- | --- | --- | --- | --- | --- | --- |
| CNC(=O)c1cc(-c2cc(-c3cc(NC(=O)c4cc(C(C)(F)F)cnn4)ccc3C)cc(OCCO)n2)ccn1 [Example 43] | 100 to 500 | < 100 | < 100 | 500 to 1000 | 100 to 500 | 100 to 500 |
| Cc1cc(-c2cc(NC(=O)c3cc(C(F)(F)F)cnn3)ccc2C)cc(-c2ccnc(C(N)=O)c2)n1 [Example 7] | 100 to 500 | 100 to 500 | < 100 | 100 to 500 | 100 to 500 | 100 to 500 |
| CNC(=O)c1cc(-c2cncc(-c3cc(NC(=O)c4cc(C(F)(F)F)cnn4)ccc3C)c2)ccn1 [Example 16] | 500 to 1000 | < 100 | < 100 | 500 to 1000 | 1000 to 10000 | 1000 to 10000 |
| CNC(=O)c1cc(-c2cc(-c3cc(NC(=O)c4cc(C5CC5)cnn4)ccc3C)cc(N[C@H](C)CO)n2)ccn1 [Example 32] | 100 to 500 | < 100 | < 100 | 100 to 500 | 100 to 500 | 100 to 500 |
| CNC(=O)c1cc(-c2cc(-c3cc(NC(=O)c4cc(C(C)(F)F)cnn4)ccc3C)cc(N[C@H](C)CO)n2)ccn1 [Example 38] | 100 to 500 | < 100 | < 100 | 100 to 500 | 100 to 500 | 100 to 500 |
| CNC(=O)c1cc(-c2nc(NCCO)cc(-c3cc(NC(=O)c4cc(C5CC5)cnn4)ccc3C)n2)ccn1 [Example 22] | 1000 to 10000 | < 100 | < 100 | 1000 to 10000 | 1000 to 10000 | 1000 to 10000 |
| CNC(=O)c1cc(-c2cc(-c3cc(NC(=O)c4cc(C#N)cnn4)ccc3C)cc(OCCO)n2)ccn1 [Example 49] | 500 to 1000 | < 100 | < 100 | 500 to 1000 | 500 to 1000 | < 100 |
| CNC(=O)c1cc(-c2nc(N[C@H](C)CO)cc(-c3cc(NC(=O)c4cc(C(F)(F)F)cnn4)ccc3C)n2)ccn1 [Example 28] | 1000 to 10000 | < 100 | < 100 | 1000 to 10000 | 1000 to 10000 | 1000 to 10000 |
| CNC(=O)c1cc(-c2cc(-c3cc(NC(=O)c4cc(C(C)(F)F)cnn4)ccc3C)ccn2)ccn1 [Example 31] | 100 to 500 | < 100 | < 100 | 100 to 500 | 100 to 500 | 100 to 500 |
| CNC(=O)c1cc(-c2nc(NCCO)cc(-c3cc(NC(=O)c4cc(C(F)(F)F)cnn4)ccc3C)n2)ccn1 [Example 23] | 500 to 1000 | < 100 | < 100 | 1000 to 10000 | 1000 to 10000 | 1000 to 10000 |
| CNC(=O)c1cc(-c2cc(-c3cc(NC(=N)c4cc(C(F)(F)F)cnn4)ccc3C)ccn2)ccn1 [Example 20] | 1000 to 10000 | 500 to 1000 | 100 to 500 | 1000 to 10000 | 1000 to 10000 | 1000 to 10000 |
| CNC(=O)c1cc(-c2cc(-c3cc(NC(=O)c4cc(C(C)(F)F)cnn4)ccc3C)cc(NCCO)n2)ccn1 [Example 42] | < 100 | < 100 | < 100 | < 100 | 100 to 500 | 100 to 500 |
| CNC(=O)c1cc(-c2cncc(-c3cc(NC(=O)c4cc(C(F)(F)F)cnn4)ccc3C)c2)ncn1 [Example 17] | 1000 to 10000 | 100 to 500 | 100 to 500 | 1000 to 10000 | 1000 to 10000 | 1000 to 10000 |
| CNC(=O)c1cc(-c2cc(-c3cc(NC(=O)c4cnc(C(F)(F)F)nc4)ccc3C)cc(N[C@H](C)CO)n2)ccn1 [Example 45] | 1000 to 10000 | 100 to 500 | 100 to 500 | 1000 to 10000 | 1000 to 10000 | 1000 to 10000 |
| CNC(=O)c1cc(-c2cc(-c3cc(NC(=O)c4cc(C5CC5)cnn4)ccc3C)nc(NCCO)n2)ccn1 [Example 8] | 100 to 500 | < 100 | < 100 | 500 to 1000 | 1000 to 10000 | 1000 to 10000 |
| CNC(=O)c1cc(-c2cc(N[C@H](C)CO)nc(-c3cc(NC(=O)c4cc(C(F)(F)F)cnn4)ccc3C)n2)ccn1 [Example 39] | 1000 to 10000 | 100 to 500 | 100 to 500 | 1000 to 10000 | 1000 to 10000 | 1000 to 10000 |
| CNC(=O)c1cc(-c2cc(-c3cc(NC(=O)c4cc(C(F)(F)F)cnn4)ccc3C)nc(N[C@H](C)CO)n2)ccn1 [Example 25] | 100 to 500 | < 100 | < 100 | 100 to 500 | 100 to 500 | 1000 to 10000 |
| CNC(=O)c1cc(-c2cncc(-c3cc(NC(=O)c4cc(C#N)cnn4)ccc3C)c2)ccn1 [Example 46] | 500 to 1000 | 100 to 500 | 100 to 500 | 1000 to 10000 | 1000 to 10000 | 1000 to 10000 |
| CNC(=O)c1cc(-c2cc(-c3cc(NC(=O)c4cncc(C(F)(F)F)c4)ccc3C)ccn2)ccn1 [Example 12] | 1000 to 10000 | < 100 | < 100 | 1000 to 10000 | 1000 to 10000 | 1000 to 10000 |
| CNC(=O)c1cc(-c2cncc(-c3cc(NC(=O)c4cc(C5CC5)cnn4)ccc3C)c2)ncn1 [Example 24] | 1000 to 10000 | < 100 | < 100 | 1000 to 10000 | 1000 to 10000 | 1000 to 10000 |
